“Also recorded” adds a separate entry of the source. Residues, ends and D or L forms follow the SMILES beside them. *: point of attachment. Decanoyl = CCCCCCCCCC(=O)*; CH2Cl = ClC*
Tests used:
rFeMV^US5Venus (6) [1] = type: cell-based, Feline morbillivirus (FeMV)
[2] = tested on: rFeMV^US5Venus (6) or rFeMV^US5Venus (3); type: cell-based, Feline morbillivirus (FeMV)
rFeMV^US5Venus (6) [3] = type: cell-based, Feline morbillivirus (FeMV); remark: listed apart in the source
FeMV^US5FPB protein = type: cell-based, Feline morbillivirus (FeMV)
FeMV^US5FPB = assay: Western blot of AU1-tagged F glycoprotein processing (F0 to F1) in transfected cells; type: cell-based, Feline morbillivirus (FeMV); conditions: E64d 20 μM vs DMSO; transfected CRFK cells, lysates at 2 d.p.t.
Procedure: (§1) CRFK cells were transfected with pCG-FeMV^US5F, pCG-FeMV^US5FAU1, or pCG-FeMV^US5FPB-AU1 in the absence or presence of the pan-cysteine protease inhibitor E64d. At 2 d.p.t. cell lysates were prepared. Medium was removed and the monolayers were rinsed twice with 1 ml cold D-PBS. Cold 1× RIPA buffer (Boston bioproducts; 200 μl) containing 1× HALT protease inhibitors (Thermo Fisher Scientific) was added to the monolayers and incubated on ice for 15 minutes. Monolayers were scraped into the buffer and transferred to cold 1.5 ml tubes. Lysates were incubated on ice for 30 minutes with intermittent vortexing before being centrifuged at 14,000 g for 15 minutes at 4° C. to pellet nuclei. The cleared supernatants were used to prepare samples for polyacrylamide gel electrophoresis (PAGE) by adding appropriate volumes of 4× NUPAGE™ LDS sample loading buffer and ×10 NUPAGE™ reducing agent (both Thermo Fisher Scientific Scientific). PAGE samples were heated to 70° C. for 10 minutes before separation of proteins on a 10% NUPAGE™ bis-TRIS polyacrylamide gel using the Xcell SureLock Mini-Cell system (Thermo Fisher Scientific Scientific) according to manufacturer's instructions. An aliquot of SeeBlue Plus2 Protein Standard was included on each gel to allow estimation of protein sizes. […]

FeMV^US5F = assay: as above; type: cell-based, Feline morbillivirus (FeMV); conditions: E64d 20 μM vs DMSO; transfected CRFK cells, lysates at 2 d.p.t.
Procedure: as §1

[4] = tested on: FeMV F and H glycoproteins; type: cell-based, Feline morbillivirus (FeMV)
[5] = tested on: NiV^MA F and G glycoproteins; type: cell-based, Nipah virus (NiV)
[6] = tested on: CDV^RI F and H glycoproteins; type: cell-based
[7] = tested on: MV^KS F and H glycoproteins; type: cell-based
FeMV = conditions: trypsin added during virus titration in CRFK cells; cited from earlier work

| Molecule | rFeMV^US5-induced cell-to-cell fusion (luciferase activity) (rFeMV^US5Venus (6) [1]) | infectious virus titers [2] | cell-to-cell fusion and spread by rFeMV^US5Venus (6) and rFeMV^US5Venus (3) (rFeMV^US5Venus (6) [3]) | spread of rFeMV^US5Venus (6) infection (rFeMV^US5Venus (6) [3]) | virus entry and initial replication in cells (rFeMV^US5Venus (6) [3]) | fusion activity with FeMV^US5FPB protein (FeMV^US5FPB protein) | FeMV^US5FPB (polybasic cleavage signal) F0 processing (FeMV^US5FPB) | FeMV^US5F processing (F0 to F1 subunit) (FeMV^US5F) | FeMV glycoprotein-induced fusion [4] | NiV^MA glycoprotein-induced fusion [5] | CDV^RI glycoprotein-induced fusion [6] | MV^KS glycoprotein-induced fusion [7] | effect of trypsin on resultant virus titers (FeMV) | effect of exogenous trypsin on FeMV glycoprotein-induced cell-to-cell fusion [4] |
| --- | --- | --- | --- | --- | --- | --- | --- | --- | --- | --- | --- | --- | --- | --- |
| CCCNC(=O)[C@H]1O[C@@H]1C(=O)N[C@H](C(=O)N1CCC[C@H]1C(=O)OC)[C@@H](C)CC [CA-074Me] | reduced; also recorded: inhibited | reduced the infectious virus titers by two logs | prevented cell-to-cell fusion and spread | limited to single cells with no spread from the initially infected cell | can enter and initially replicate in cells equivalently to the no inhibitor control |  |  |  |  |  |  |  |  |  |
| CCOC(=O)[C@H]1O[C@@H]1C(=O)N[C@@H](CC(C)C)C(=O)NCCC(C)C [E64d] | reduced | reduced the infectious virus titers by two logs | prevented cell-to-cell fusion and spread | limited to single cells with no spread from the initially infected cell | can enter and initially replicate in cells equivalently to the no inhibitor control | no longer affected the fusion activity | no longer prevented F0 glycoprotein processing | prevented FeMV^US5F processing | significantly reduced; also recorded: inhibited | significantly reduced |  |  |  |  |
| CCCCCCCCCC(=O)N[C@@H](CCCN=C(N)N)C(=O)N[C@H](C(=O)N[C@@H](CCCCN)C(=O)N[C@@H](CCCN=C(N)N)C(=O)CCl)C(C)C [furin inhibitor I] (Decanoyl-RVKR-CH2Cl) | no difference in luciferase activity |  |  | had spread significantly |  | significantly reduced fusion |  |  | unaffected |  | reduced | reduced |  |  |
| trypsin (protein, UniProt P00760 24-246, looked up, exogenous protease added to fusion assays or virus titration) Serine protease 1: IVGGYTCGANTVPYQVSLNSGYHFCGGSLINSQWVVSAAHCYKSGIQVRLGEDNINVVEGNEQFISASKSIVHPSYNSNTLNNDIMLIKLKSAASLNSRVASISLPTSCASAGTQCLISGWGNTKSSGTSYPDVLKCLKAPILSDSSCKSAYPGQITSNMFCAGYLEGGKDSCQGDSGGPVVCSGKLQGIVSWGSGCAQKNKPGVYTKVCNYVSWIKQTIASN |  |  |  |  |  |  |  |  |  |  |  |  | did not augment the resultant virus titers | did not enhance fusion |
